Measurements published in patent US20070015661A1, “Herbicide/safener combination” (Bayer CropScience GmbH, priority 2005, published 2007).

Tests used:
[1] = tested on: Sinapis alba, Chrysanthemum segetum, Avena sativa, Stellaria media, Echinochloa crus-galli, Lolium multiflorum, Setaria viridis, Abutilon theophrasti …; assay: Pre-emergence action against weeds (greenhouse pot test, optical scoring); type: in vivo, monocotyledonous and dicotyledonous weed plants; details: herbicide/safener combination, above all with safeners II-1, II-9, III-1, b-11, b-14, IX-A3; pre-emergence method; 500 g or less of herbicide (A) per hectare; 3 to 4 weeks
Excerpt: Seeds or rhizome pieces of monocotyledonous and dicotyledonous weed plants were placed in sandy loam soil in cardboard pots and covered with soil. The active compounds (A) and (B), formulated in the form of wettable powders or emulsion concentrates, were then applied to the surface of the covering soil in various dosages as aqueous suspensions or emulsions using a water application rate of 300 to 800 l/ha (converted).
After the treatment, the pots were placed in a greenhouse and kept under good growth conditions for the weeds. Optical scoring of the damage to the plants or emerged plants was carried out after emergence of the test plants after a trial period of 3 to 4 weeks, in comparison to untreated controls. As shown by the results, the tested herbicide/safener combinations have good herbicidal pre-emergence activity against a broad spectrum of weed grasses and broad-leaved weeds.

[2] = tested on: Sinapis alba, Echinochloa crus-galli, Lolium multiflorum, Chrysanthemum segetum, Setaria viridis, Abutilon theophrasti, Amaranthus retroflexus, Panicum …; assay: Post-emergence action against weeds (greenhouse pot test, visual scoring); type: in vivo, monocotyledonous and dicotyledonous weeds; details: herbicide/safener combination, above all with safeners II-1, II-9, III-1, b-11, b-14, IX-A3; post-emergence method, three-leaf stage; 500 g or less of herbicide (A) per hectare; three to four weeks
Protocol: Seeds or rhizome pieces of monocotyledonous and dicotyledonous weeds were placed into sandy loam soil in plastic pots, covered with soil and grown in a greenhouse under good growth conditions. Three weeks after sowing, the test plants were treated at the three-leaf stage. The compounds according to the invention, formulated as wettable powders or as emulsion concentrates, were sprayed onto the green parts of the plants at various dosages using a water application rate of 300 to 800 l/ha (converted). The test plants were stood in the greenhouse under optimum growth conditions for about three to four weeks, and the action of the preparations was then scored visually in comparison to untreated controls. Post-emergence, too, the herbicide/safener combinations according to the invention have good herbicidal activity against a broad spectrum of economically important weed grasses and broad-leaved weeds.

[3] = tested on: cotton, oilseed rape, sugar beet and Gramineae crops such as barley, wheat, rye, millet, corn or rice; assay: Compatibility with crop plants (greenhouse, visual scoring); type: in vivo; details: herbicide/safener combination, above all with safeners II-1, II-9, III-1, b-11, b-14, IX-A3; pre-emergence method or post-emergence method; four to five weeks after application
Excerpt: In further greenhouse trials, seeds of a relatively large number of crop plants and weeds were placed into sandy loam soil and covered with soil. Some of the pots were immediately treated as described in Section 1, the others were placed in a greenhouse until the plants had developed two to three true leaves and were then sprayed with various dosages of the herbicide/safener combinations according to the invention, as described in Section 2.

Row | Structure (SMILES) | herbicidal activity against harmful plants (optical scoring of damage vs untreated controls) [1] | herbicidal activity against harmful plants (visual scoring vs untreated controls) [2] | damage to crop plants (visual scoring) [3]
1 | Cn1nc(C(F)(F)F)c(C(Br)S(=O)(=O)C2=NOC(C)(C)C2)c1OC(F)F (stereo not drawn) [I-275.1] | very good herbicidal activity | very good herbicidal activity | did not cause any damage
2 | CC1(C)CC(S(=O)(=O)C(F)c2c(F)cccc2F)=NO1 (stereo not drawn) [I-250.1] | very good herbicidal activity | very good herbicidal activity | did not cause any damage
3 | Cn1nc(C(F)(F)F)c(C(F)S(=O)(=O)C2=NOC(C)(C)C2)c1OC(F)F (stereo not drawn) [I-260.1] | very good herbicidal activity | very good herbicidal activity | did not cause any damage
4 | CCC1(C)CC(S(=O)(=O)C(Cl)c2c(F)cccc2F)=NO1 (stereo not drawn) [I-3.2] | very good herbicidal activity | very good herbicidal activity | did not cause any damage
5 | CC1(C)CC(S(=O)(=O)C(Cl)c2ccccc2OC(F)(F)F)=NO1 (stereo not drawn) [I-10.1] | very good herbicidal activity | very good herbicidal activity | did not cause any damage
6 | CC1(C)CC(S(=O)(=O)C(Cl)c2c(Cl)cccc2Cl)=NO1 (stereo not drawn) [I-109.1] | very good herbicidal activity | very good herbicidal activity | did not cause any damage
7 | CC1(C)CC(S(=O)(=O)C(F)c2cc(F)ccc2F)=NO1 (stereo not drawn) [I-249.1] | very good herbicidal activity | very good herbicidal activity | did not cause any damage
8 | CCC1(C)CC(S(=O)(=O)C(Cl)c2c(C(F)(F)F)nn(C)c2Cl)=NO1 (stereo not drawn) [I-216.2] | very good herbicidal activity | very good herbicidal activity | did not cause any damage
9 | CC1(C)CC(S(=O)(=O)C(Cl)c2c(F)cccc2C(F)(F)F)=NO1 (stereo not drawn) [I-117.1] | very good herbicidal activity | very good herbicidal activity | did not cause any damage
10 | CC1(C)CC(S(=O)(=O)C(Cl)c2cc(F)ccc2F)=NO1 (stereo not drawn) [I-2.1] | very good herbicidal activity | very good herbicidal activity | did not cause any damage
11 | Cn1nc(C(F)(F)F)c(C(Cl)S(=O)(=O)C2=NOC(C)(C)C2)c1Cl (stereo not drawn) [I-216.1] | very good herbicidal activity | very good herbicidal activity | did not cause any damage
12 | Cn1nc(C(F)(F)F)c(C(Cl)S(=O)(=O)C2=NOC(C)(C)C2)c1OC(F)F (stereo not drawn) [I-206.1] | very good herbicidal activity | very good herbicidal activity | did not cause any damage
13 | CC1(C)CC(S(=O)(=O)C(Cl)c2cc(F)cc(F)c2F)=NO1 (stereo not drawn) [I-129.1] | very good herbicidal activity | very good herbicidal activity | did not cause any damage
14 | CC1(C)CC(S(=O)(=O)C(Cl)c2ccccc2Cl)=NO1 (stereo not drawn) [I-6.1] | very good herbicidal activity | very good herbicidal activity | did not cause any damage
15 | CC1(C)CC(S(=O)(=O)C(Cl)c2c(F)cccc2Cl)=NO1 (stereo not drawn) [I-5.1] | very good herbicidal activity | very good herbicidal activity | did not cause any damage
16 | CCC1(C)CC(S(=O)(=O)C(Cl)c2cc(C(F)(F)F)ccc2Cl)=NO1 (stereo not drawn) [I-98.2] | very good herbicidal activity | very good herbicidal activity | did not cause any damage
17 | Cn1nc(C(F)(F)F)c(C(Cl)[S+]([O-])C2=NOC(C)(C)C2)c1OC(F)F (stereo not drawn) [I-289.1] | very good herbicidal activity | very good herbicidal activity | did not cause any damage
18 | CCC1(C)CC(S(=O)(=O)C(Cl)c2cc(F)ccc2F)=NO1 (stereo not drawn) [I-2.2] | very good herbicidal activity | very good herbicidal activity | did not cause any damage
19 | CC1(C)CC(S(=O)(=O)C(Cl)c2ccccc2)=NO1 (stereo not drawn) [I-1.1] | very good herbicidal activity | very good herbicidal activity | did not cause any damage
20 | CC1(C)CC(S(=O)(=O)C(Cl)c2cc(C(F)(F)F)ccc2F)=NO1 (stereo not drawn) [I-4.1] | very good herbicidal activity | very good herbicidal activity | did not cause any damage
21 | CC1(C)CC(S(=O)(=O)C(Cl)c2c(F)cccc2F)=NO1 (stereo not drawn) [I-3.1] | very good herbicidal activity | very good herbicidal activity | did not cause any damage
